pIC50: −log10 of the molar value. Several values for one entry are separate records, joined by “and”; a condition that tells them apart may be missing. Equal values may be shown once. Peptide text beside a SMILES is read from it.
Legend:
Assay type in all cases: cell-based
[1] = tested on: HIV-1 NL 4-3; test: HIV-1 infection of C8166 cells (syncytia formation, p24 ELISA) with HIV-1 NL 4-3; design: key: ++, +, (+), (+)− and − represent decreasing numbers of syncitia formed; ++, +, (+), (+)− and − represent decreasing numbers of syncitia formed; ++, +, (+), (+)− and − represent decreasing numbers of syncitia formed; ++, +, (+), (+)− and − represent decreasing numbers of syncitia formed; ++, +, (+), (+)− and − represent decreasing numbers of syncitia formed; conditions: Table 6
Procedure, shortened: (§1)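 C8166 T-cells were preincubated with peptide for 1 h at 37 °C, then exposed for 1 h to HIV-1 at 1000 TCID50/ml, washed, and cultured with peptide kept present throughout, with medium replaced at day 4. Infection was scored by syncytia formation and by supernatant p24 ELISA, with at least two runs in duplicate.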

[2] = tested on: HIV-1 NDK; test: HIV-1 infection of C8166 cells (syncytia formation, p24 ELISA) with HIV-1 NDK; design: key to syncitia formed, Day 4 / syncitia formed, Day 5 / syncitia formed, Day 6 / syncitia formed, Day 7: ++, +, (+), (+)− and − represent decreasing numbers of syncitia formed; ++, +, (+), (+)− and − represent decreasing numbers of syncitia formed; ++, +, (+), (+)− and − represent decreasing numbers of syncitia formed; ++, +, (+), (+)− and − represent decreasing numbers of syncitia formed; ++, +, (+), (+)− and − represent decreasing numbers of syncitia formed; conditions: for P 24: P 24 after Day 7
Protocol: HIV-1 NL 4-3 isolate (Adachi et al., 1986; Barré-Sinoussi et al., 1983) and highly cytopathic Zairian HIV-1 NDK isolate (Ellrodt et al., 1984) was propagated in permissive CEM cells (Nara et al., 1987). Uninfected CEM and C8166 (Salahuddin et al., 1983) were maintained in RPMI 1640 (R10) with ultraglutamine (cambrex, Vervier, Belgium), penicillin (100 U/ml), streptomycin (100 μg/ml), and 10% heat-inactivated fetal calf serum (Cambrex).
Samples of 3×10^5/100 μL C8166 cells were preincubated in 96-well microtiter plates in culture medium containing various concentrations of peptide. After a 1 h treatment at 37° C., 100 μl of diluted viral solution of HIV-1 was added. The cells were exposed to the virus for 1 h at 37° C. at a multiplicity of infection of 1000 TCID50 per ml. The cells were washed three times and cultured at 3×10^5/ml of R10 with the treatment in 24-well plates incubated at 37° C. C8166 culture medium was replaced at Day-4 post-infection. The treatment was permanent before virus adsorption, during virus adsorption and after infection. Assays on C8166 cells have been performed at least twice and in duplicate. Toxicity was evaluated by daily cell count and trypan-blue exclusion assay. Infection of C8166 T-cells with HIV-1 was assessed by virus-induced cytopathic effects (syncytia formation) and by quantification of cell free p24 viral protein in the culture supernatants. Measurements of HIV-1 p24^gag concentration in the culture supernatants were achieved by ELISA (ALLIANCE® HIV-1 p24 kit, Perkin Elmer, life sciences, USA).

[3] = tested on: HIV-1 NL 4-3; test: HIV-1 infection of C8166 cells (syncytia formation, p24 ELISA) with HIV-1 NL 4-3; design: key to syncitia formed, Day 4 / syncitia formed, Day 5 / syncitia formed, Day 6 / syncitia formed, Day 7: ++, +, (+), (+)− and − represent decreasing numbers of syncitia formed; ++, +, (+), (+)− and − represent decreasing numbers of syncitia formed; ++, +, (+), (+)− and − represent decreasing numbers of syncitia formed; ++, +, (+), (+)− and − represent decreasing numbers of syncitia formed; ++, +, (+), (+)− and − represent decreasing numbers of syncitia formed
Procedure, shortened: as §1

[4] = C8166 cells, HIV-1 subtype B NL 4-3, Table 9, two lines = tested twice, 8 days apart

## NCC(=O)N1CCC[C@H]1C(=O)NCC(=O)O [GPG, reference compound] (H-Gly-Pro-Gly-OH)
[1]; 0.005 μM
  Day 4 syncitia formed: −
  Day 5 syncitia formed: +
  Day 6 syncitia formed: ++
[1]; 0.01 μM
  Day 4 syncitia formed: −
  Day 5 syncitia formed: (+)
  Day 6 syncitia formed: +
  Day 7 syncitia formed: ++
[1]; 0.05 μM
  Day 4 syncitia formed: −
  Day 5 syncitia formed: −
  Day 6 syncitia formed: (+)
  Day 7 syncitia formed: +
[1]; 0.1 μM
  Day 4 syncitia formed: −
  Day 5 syncitia formed: −
  Day 6 syncitia formed: −
  Day 7 syncitia formed: +
[1]; 0.5 μM
  Day 4 syncitia formed: −
  Day 5 syncitia formed: −
  Day 6 syncitia formed: −
  Day 7 syncitia formed: −
[1]; 1 μM
  Day 4 syncitia formed: −
  Day 5 syncitia formed: −
  Day 6 syncitia formed: −
  Day 7 syncitia formed: −
[1]; 5 μM
  Day 4 syncitia formed: −
  Day 5 syncitia formed: −
  Day 6 syncitia formed: −
  Day 7 syncitia formed: −
[2]; 0.005 μM
  syncitia formed, Day 4: +
  syncitia formed, Day 5: +
  syncitia formed, Day 6: ++
  syncitia formed, Day 7: ++
  P 24: 23810 pg/mL
[2]; 0.01 μM
  syncitia formed, Day 4: +
  syncitia formed, Day 5: +
  syncitia formed, Day 6: ++
  syncitia formed, Day 7: ++
  P 24: 23810 pg/mL
[2]; 0.05 μM
  syncitia formed, Day 4: (+)
  syncitia formed, Day 5: +
  syncitia formed, Day 6: ++
  syncitia formed, Day 7: ++
  P 24: 23810 pg/mL
[2]; 0.1 μM
  syncitia formed, Day 4: −
  syncitia formed, Day 5: +
  syncitia formed, Day 6: ++
  syncitia formed, Day 7: ++
  P 24: 23810 pg/mL
[2]; 0.5 μM
  syncitia formed, Day 4: −
  syncitia formed, Day 5: +
  syncitia formed, Day 6: ++
  syncitia formed, Day 7: ++
  P 24: 21110 pg/mL and 23810 pg/mL
[2]; 1 μM
  syncitia formed, Day 4: −
  syncitia formed, Day 5: (+)
  syncitia formed, Day 6: +
  syncitia formed, Day 7: +
  P 24: 3810 pg/mL and 2507 pg/mL
[2]; 5 μM
  syncitia formed, Day 4: −
  syncitia formed, Day 5: −
  syncitia formed, Day 6: −
  syncitia formed, Day 7: +
  P 24: 2733 pg/mL and 2400 pg/mL
[2]; HIV 1 NDK, Table 10
  pIC50: 6.30
  IC100: >5 µM
[3]; 0.005 μM, Table 6
  Day 7 syncitia formed: ++/T
[3]; 0.01 μM, C8166 cells
  syncitia formed, Day 4: (+)
  syncitia formed, Day 5: (+)
  syncitia formed, Day 6: +
[3]; 0.01 μM, Day 7, C8166 cells
  syncitia formed, Day 7: ++
[3]; 0.01 μM, P 24 after Day 7, C8166 cells
  P 24: 9810 pg/mL and 15810 pg/mL
[3]; 0.1 μM, C8166 cells
  syncitia formed, Day 4: −
  syncitia formed, Day 5: −
  syncitia formed, Day 6: (+)
[3]; 0.1 μM, Day 7, C8166 cells
  syncitia formed, Day 7: +
[3]; 0.1 μM, P 24 after Day 7, C8166 cells
  P 24: 807 pg/mL and 1506 pg/mL
[3]; 0.5 μM, C8166 cells
  syncitia formed, Day 4: −
  syncitia formed, Day 5: −
  syncitia formed, Day 6: − and (+)
[3]; 0.5 μM, Day 7, C8166 cells
  syncitia formed, Day 7: (+) and +
[3]; 1 μM, C8166 cells
  syncitia formed, Day 4: −
  syncitia formed, Day 5: −
  syncitia formed, Day 6: −
[3]; 1 μM, Day 7, C8166 cells
  syncitia formed, Day 7: (+)
[3]; 1 μM, P 24 after Day 7, C8166 cells
  P 24: 62 pg/mL and 42 pg/mL
[3]; 5 μM, C8166 cells
  syncitia formed, Day 4: −
  syncitia formed, Day 5: −
  syncitia formed, Day 6: −
[3]; 5 μM, Day 7, C8166 cells
  syncitia formed, Day 7: −
[3]; [4]
  pIC50: 8.00
  IC100: 5 µM
[3]; Day 7, 0.005 μM, Table 6
  P 24: 23810 pg/mL
[3]; Day 7, 0.01 μM, Table 6
  P 24: 13850 pg/mL and 11756 pg/mL
[3]; Day 7, 0.05 μM, Table 6
  P 24: 7330 pg/mL and 9810 pg/mL
[3]; Day 7, 1 μM, Table 6
  P 24: 5.4 pg/mL and 3.8 pg/mL

Source: patent US20060229433A1, “Modified antiviral peptides with increased activity and cell membrane affinity” (priority 2003, published 2006)
